Test results published in US20260070887A1 (Shenzhen Zhongge Biological Technology Co., Ltd., priority 2022, published 2026).
Like-named read-outs stand apart in the source and are kept apart here.

How the values were obtained:
KIF18A = KIF18A (Homo sapiens (Human), UniProt Q8NI77); experiment: KIF18A ATPase activity under tubulin stimulation (ADP-Glo assay); assay type: biochemical; conditions: KIF18A 30 nM, ATP 150 μM, pig microtubules
Protocol: This experiment assesses the inhibitory effect of the compounds of the present disclosure on the KIF18A target according to the IC50 values by measuring the KIF18A ATPase activity under tubulin stimulation with the presence of the compounds.
• 1. Preparation of 30 mL of reaction buffer: • (1) 450 μL 1M Tris-HCl (pH=7.5)+300 μL 1M MgCl2+30 μL 10% Pluronic F-68 (ThermoFisher, 24040032-100 ml); • (2) adjusting pH to 7.5, and adding water to adjust the volume to 30 mL. • 2. Preparation of a 5 mg/mL pig microtubule (Microtubules; MT) (Cytoskeleton Inc, MT002) stock solution: • (1) 10 mL PM buffer=150 μL 1 M PIPES (pH 7.0)+20 μL 0.5 mM MgCl2+100 μL 2 mM Taxol (Cytoskeleton Inc, TXD01)+9730 μL water. • (2) MT ([…]): Adding 100 μL PM buffer to prepare a 5 mg/mL stock solution. Keeping the MT (Cytoskeleton Inc, MT002) at room temperature for 10-15 minutes, gently mixing and storing same at −80° C. • 3. Preparation of 2 mL of kinase buffer: 2 mL reaction buffer+1 μL 2 mM Taxol (Cytoskeleton Inc, TXD01)+12 μL 5 mg/mL MT (Cytoskeleton Inc, MT002). • 4. Preparation of 2×KIF18A (30 nM) (ChemPartner, CPB-P22-31645) working solution: 2.4 μL 10 μM KIF18A (ChemPartner, CPB-P22-31645)+800 μL 1× kinase buffer. • 5. Preparation of 2×ATP (150 μM) (Promega, G9101) working solution: 12 μL 10 mM ATP+800 μL 1× kinase buffer. • 6. 25 nL of compound was transferred to a 384-well plate using Echo650. • 7. 2.5 μL of 2×KIF18A from Step 4 (final concentration of 30 nM) was added to the 384-well plate and the plate was incubated at 25° C. for 15 minutes. • 8. 2.5 μL of 2×ATP from Step 5 (final concentration of 150 μM) was added to the 384-well plate and the plate was incubated at 25° C. for 15 minutes. • 9. 5 μL ADP-Glo™ Reagent (Promega, G9101) was added to the 384-well plate and the plate was incubated at 25° C. for 40 minutes. • 10. 10 μL of kinase detection reagent (Promega, G9101) was added to the 384-well plate and the plate was incubated at 25° C. for 40 minutes. • 11. Luminescence values were measured using the EnVision Xcite Multilabel Reader (PerkinElmer, 2105-0020).

OVCAR-3 cells = experiment: OVCAR-3 cell proliferation (Cell Titer-Glo, 10 days); assay type: cell-based, human
Protocol: The inhibitory effect on the KIF18A target by the compounds of the present disclosure was evaluated by testing the inhibitory effect on proliferation of OVCAR-3 cells by the compounds of the present disclosure.
The following method was used to determine the effect of the compounds of the present disclosure on the proliferation of human ovarian cancer cells Ovcar-3 (HTB-161, ATCC). Cells were cultured in RPMI-1640 complete medium containing 20% fetal bovine serum, 0.01 mg/mL bovine insulin, 100 U penicillin, and 100 μg/mL streptomycin. The Promega kit Cell Titer-Glo (Cat. No. G7572) was used in this method for test.
For specific steps, reference was made to the kit instructions, and the procedure was outlined below: Test compounds were dissolved in DMSO to prepare a 10 mM stock solution, which was diluted at the predetermined test concentrations, and the test compounds at different concentrations were added to a 384-well cell test plate using ECHO. In the plate pre-added with the test compounds, 400 OVCAR-3 cells in the logarithmic growth phase were seeded per well, ensuring the final concentration of the test compounds in the reaction system ranged between 0.12 nM and 10 μM. The co-culture was maintained in a cell culture incubator for 10 days. Before testing, the cell culture plate was equilibrated for 10 minutes at room temperature, 25 μL of Cell Titer-Glo was added to each well, and the mixture was shaken and mixed well and let stand for 5 minutes. The luminescence values for samples in various wells were read using a microplate reader in Luminescence mode.
The percentage of inhibition of cell proliferation by the test compound at each concentration was calculated by comparing with the values of the control group (0.1% DMSO). The IC50 values of the compounds were obtained by concentration-inhibition rate nonlinear regression analysis of the test compounds using GraphPad Prism 9.

KIF18A, sequence (Q8NI77 whole entry): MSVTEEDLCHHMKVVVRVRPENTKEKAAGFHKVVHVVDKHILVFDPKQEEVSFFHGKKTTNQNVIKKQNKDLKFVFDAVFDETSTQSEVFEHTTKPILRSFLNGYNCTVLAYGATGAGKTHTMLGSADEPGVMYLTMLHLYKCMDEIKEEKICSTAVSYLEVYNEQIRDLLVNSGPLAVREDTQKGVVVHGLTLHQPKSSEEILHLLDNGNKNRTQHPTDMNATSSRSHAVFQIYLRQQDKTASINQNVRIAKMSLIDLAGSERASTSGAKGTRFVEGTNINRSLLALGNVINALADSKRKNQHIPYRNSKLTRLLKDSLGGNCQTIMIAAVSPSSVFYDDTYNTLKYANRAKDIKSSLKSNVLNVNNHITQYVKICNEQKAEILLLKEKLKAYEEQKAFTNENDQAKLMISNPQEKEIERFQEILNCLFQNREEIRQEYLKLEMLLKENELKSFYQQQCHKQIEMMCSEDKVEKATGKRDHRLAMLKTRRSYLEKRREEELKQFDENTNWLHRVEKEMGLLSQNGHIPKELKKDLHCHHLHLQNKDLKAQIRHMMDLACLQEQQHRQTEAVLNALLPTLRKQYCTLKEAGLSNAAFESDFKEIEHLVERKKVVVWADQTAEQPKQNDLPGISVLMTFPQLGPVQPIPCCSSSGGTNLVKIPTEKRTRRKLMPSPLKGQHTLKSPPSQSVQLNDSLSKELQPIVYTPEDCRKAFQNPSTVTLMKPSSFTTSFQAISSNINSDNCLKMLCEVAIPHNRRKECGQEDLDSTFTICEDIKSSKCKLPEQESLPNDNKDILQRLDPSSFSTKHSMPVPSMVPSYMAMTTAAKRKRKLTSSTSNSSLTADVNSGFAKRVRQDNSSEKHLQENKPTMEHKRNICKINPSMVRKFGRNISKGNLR
KIF18A, sequence (P02550 whole entry partner): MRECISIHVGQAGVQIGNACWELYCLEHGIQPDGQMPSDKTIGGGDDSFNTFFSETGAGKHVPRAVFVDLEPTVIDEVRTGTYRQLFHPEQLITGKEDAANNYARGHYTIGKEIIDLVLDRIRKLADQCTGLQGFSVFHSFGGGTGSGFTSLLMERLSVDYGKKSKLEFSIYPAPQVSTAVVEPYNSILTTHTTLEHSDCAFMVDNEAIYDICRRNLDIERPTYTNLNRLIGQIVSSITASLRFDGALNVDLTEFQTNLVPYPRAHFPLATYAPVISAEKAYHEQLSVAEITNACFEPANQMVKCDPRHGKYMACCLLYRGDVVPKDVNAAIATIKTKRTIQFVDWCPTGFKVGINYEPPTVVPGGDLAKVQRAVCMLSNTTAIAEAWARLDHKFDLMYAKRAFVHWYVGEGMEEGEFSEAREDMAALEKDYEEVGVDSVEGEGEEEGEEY
KIF18A, sequence (P02554 whole entry partner): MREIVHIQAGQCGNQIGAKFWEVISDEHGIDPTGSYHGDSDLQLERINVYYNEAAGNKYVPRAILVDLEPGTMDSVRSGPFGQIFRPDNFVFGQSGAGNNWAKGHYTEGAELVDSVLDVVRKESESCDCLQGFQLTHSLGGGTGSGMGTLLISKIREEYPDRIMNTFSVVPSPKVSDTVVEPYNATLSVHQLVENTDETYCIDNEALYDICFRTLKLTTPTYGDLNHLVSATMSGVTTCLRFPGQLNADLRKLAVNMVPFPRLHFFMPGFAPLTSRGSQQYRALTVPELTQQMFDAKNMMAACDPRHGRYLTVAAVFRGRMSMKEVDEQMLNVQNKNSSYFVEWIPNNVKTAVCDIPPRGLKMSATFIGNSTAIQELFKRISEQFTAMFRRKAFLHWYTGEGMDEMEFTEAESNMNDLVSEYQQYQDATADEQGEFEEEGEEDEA

Compound	IC50 (KIF18A) [nM]	IC50 (OVCAR-3 cells; Homo sapiens, OVCAR-3, 240 h) [nM]	IC50 (OVCAR-3 cells) [nM]
CC1Cn2c(cc3c(NC(=O)c4ccc(NS(=O)(=O)CCO)cc4N4CCC5(CC4)CC5)cccc32)C(C)O1 (single isomer, unassigned) [Compound 312-P1, N-(1,3-dimethyl-3,4-dihydro-1H-[1,4]oxazino[4,3-a]indol-9-yl)-4-((2-hydroxyethyl)sulfonamido)-2-(6-azaspiro[2.5]oct-6-yl)benzamide]	50 to 500	50 to 500	
CC1Cn2c(cc3c(NC(=O)c4ccc(NS(=O)(=O)CCO)cc4N4CCC5(CC4)CC5)cccc32)C(C)O1 (single isomer, unassigned) [Compound 312-P2B, N-(1,3-dimethyl-3,4-dihydro-1H-[1,4]oxazino[4,3-a]indol-9-yl)-4-((2-hydroxyethyl)sulfonamido)-2-(6-azaspiro[2.5]oct-6-yl)benzamide]	50 to 500		50 to 500
[2H]C([2H])([2H])OC1c2cc3c(NC(=O)c4ccc(NS(=O)(=O)CCO)cc4N4CCC5(CC4)CC5)cccc3n2CCC1(F)F (single isomer, unassigned) [Compound 385-P1, N-(8,8-difluoro-9-(methoxy-d3)-6,7,8,9-tetrahydropyridino[1,2-a]indol-1-yl)-4-((2-hydroxyethyl)sulfonamido)-2-(6-azaspiro[2.5]oct-6-yl)benzamide]		50 to 500	
[2H]C([2H])([2H])OC1c2cc3c(NC(=O)c4ccc(NS(=O)(=O)CCO)cc4N4CCC(=C(F)F)CC4)cccc3n2CCC1(F)F (single isomer, unassigned) [Compound 386-P1, N-(8,8-difluoro-9-(methoxy-d3)-6,7,8,9-tetrahydropyridino[1,2-a]indol-1-yl)-2-(4-(difluoromethylene)piperidin-1-yl)-4-((2-hydroxyethyl)sulfonamido)benzamide]	500 to 5000		500 to 5000
CC1OCCn2c1cc1c(NC(=O)c3ccc(NS(=O)(=O)CCO)cc3N3CCC4(CC3)CC4)cccc12 (stereo not drawn) [Compound 311-P1, 4-((2-hydroxyethyl)sulfonamido)-N-(1-methyl-3,4-dihydro-1H-[1,4]oxazinyl[4,3-a]indol-9-yl)-2-(6-azaspiro[2.5]oct-6-yl)benzamide]	≤ 50		50 to 500
COC1c2cc3c(NC(=O)c4ccc(NS(=O)(=O)CCO)cc4N4CCC(=C(F)F)CC4)ccc(C#N)c3n2CCC1(F)F (stereo not drawn) [Compound 427, N-(4-cyano-8,8-difluoro-9-methoxy-6,7,8,9-tetrahydropyridino[1,2-a]indol-1-yl)-2-(4-(difluoromethylene)piperidin-1-yl)-4-((2-hydroxyethyl)sulfonamide)benzamide]		50 to 500	
Nc1cc(NS(=O)(=O)CCO)cc(N2CCC3(CC2)CC3)c1C(=O)Nc1cccc2c1CCN2CC1CC1 [Example 42]	50 to 500		
CC1(NS(=O)(=O)c2ccc(C(=O)Nc3cccc4c3ccn4CC3CC3)c(N3CCC4(CC3)CC4)c2)COC1 [Example 44, N-(1-(cyclopropylmethyl)-1H-indol-4-yl)-4-(N-(3-methyloxetan-3-yl)sulfamoyl)-2-(6-azaspiro[2.5]oct-6-yl)benzamide]	50 to 500		
O=C(Nc1cccc(N2CCC(F)(F)CC2)c1)Nc1ccc(NS(=O)(=O)CCO)cc1N1CCC2(CC1)CC2 [Example 147, N-(4-(3-(3-(4,4-difluoropiperidin-1-yl)phenyl)urea)-3-(6-azaspiro[2.5]octan-6-yl)phenyl)-2-hydroxyethane-1-sulfonamide]	500 to 5000		
O=C(Nc1ccc2c(c1)N(CC1CC1)CC2)Nc1ccc(NS(=O)(=O)CCO)cc1N1CCC2(CC1)CC2 [Example 150, N-(4-(3-(1-(cyclopropylmethyl)indolin-6-yl)urea)-3-(6-azaspiro[2.5]octan-6-yl)phenyl)-2-hydroxyethane-1-sulfonamide]	> 5000		
O=C(Nc1ccc2c(c1)CCN2CC1CC1)Nc1ccc(NS(=O)(=O)CCO)cc1N1CCC2(CC1)CC2 [Example 151, N-(4-(3-(1-(cyclopropylmethyl)indolin-5-yl)urea)-3-(6-azaspiro[2.5]octan-6-yl)phenyl)-2-hydroxyethane-1-sulfonamide]	> 5000		

Further lines, results first:

IC50 (KIF18A) [nM]	IC50 (OVCAR-3 cells; Homo sapiens, OVCAR-3, 240 h) [nM]	IC50 (OVCAR-3 cells) [nM]	Compound
50 to 500		50 to 500	COC1c2cc3c(NC(=O)c4ccc(NS(=O)(=O)CCO)cc4N4CCC5(CC4)CC5)cccc3n2CCC1(F)F (single isomer, unassigned) [Example 340-P1]
50 to 500	50 to 500		CCS(=O)(=O)Nc1ccc(C(=O)Nc2cccc3c2cc2n3CCCC2O)c(N2CCC3(CC2)CC3)c1 (single isomer, unassigned) [Example 373-P1, 4-(ethylsulfonamido)-N-(9-hydroxy-6,7,8,9-tetrahydropyridino[1,2-a]indol-1-yl)-2-(6-azaspiro[2.5]oct-6-yl)benzamide]
50 to 500		50 to 500	CCS(=O)(=O)Nc1ccc(C(=O)Nc2cccc3c2cc2n3CCCC2O)c(N2CCC3(CC2)CC3)c1 (single isomer, unassigned) [Example 373-P2, 4-(ethylsulfonamido)-N-(9-hydroxy-6,7,8,9-tetrahydropyridino[1,2-a]indol-1-yl)-2-(6-azaspiro[2.5]oct-6-yl)benzamide]
500 to 5000			CC(C)(C)Cn1ccc2c(NC(=O)c3ccc(NS(=O)(=O)CCO)cc3N3CCC4(CC3)CC4)cccc21 [Example 281, 4-((2-hydroxyethyl)sulfonamido)-N-(1-neopentyl-1H-indol-4-yl)-2-(6-azaspiro[2.5]octan-6-yl)benzamide]
500 to 5000			O=C(Nc1cccc2c1ccn2CC1(C(F)(F)F)CC1)c1ccc(NS(=O)(=O)CCO)cc1N1CCC2(CC1)CC2 [Example 284]
50 to 500			CC1(Cn2ccc3c(NC(=O)c4ccc(NS(=O)(=O)CCO)cc4N4CCC5(CC4)CC5)cccc32)CC1 [Example 285, 4-((2-hydroxyethyl)sulfonamido)-N-(1-((1-methylcyclopropyl)methyl)-1H-indol-4-yl)-2-(6-azaspiro[2.5]oct-6-yl)benzamide]
> 5000			O=C(Nc1nccc2c1cc1n2CCOC1)c1ccc(NS(=O)(=O)CCO)cc1N1CCC2(CC1)CC2 [Example 306, N-(3,4-dihydro-1H-pyridino[3′,4′:4,5]pyrrolo[2,1-c][1,4]oxazin-9-yl)-4-((2-hydroxyethyl)sulfonamido)-2-(6-azaspiro[2.5]oct-6-yl)benzamide]
	50 to 500		CC1(C)Cn2c(cc3c(NC(=O)c4cnc(NS(=O)(=O)CCO)cc4N4CCC5(CC4)CC5)cccc32)CO1 [Example 454, N-(3,3-dimethyl-3,4-dihydro-1H-[1,4]oxazino[4,3-a]indol-9-yl)-6-(2-hydroxyethylsulfonamide)-4-(6-azaspiro[2.5]octan-6-yl)nicotinamide]
	50 to 500		CC1(C)Cn2c(cc3c(NC(=O)c4ccc(NS(=O)(=O)CCO)cc4N4CCC(=C(F)F)CC4)ccc(Cl)c32)CO1 [Example 522, N-(6-chloro-3,3-dimethyl-3,4-dihydro-1H-[1,4]oxazino[4,3-a]indol-9-yl)-2-[4-(difluoromethylene)hexahydropyridin-1-yl]-4-{[(2-hydroxyethyl)sulfonamide]}benzamide]
